These results are taken from patent US7696238B2, “Substituted benzo[d]isoxazol-3-yl amine compounds as analgesics” (Gruenenthal GmbH, priority 2005, dated 2010).

In experiment [1] the target is T1, hKCNQ2/3 (stably transfected hKCNQ2/3 CHO-K1 cell line) (Homo sapiens, UniProt O43525+O43526).
T1 construct: expressed in transfected cells; host or cells: CHO-K1
Description: Voltage clamp (patch-clamp) measurements, current increase relative to retigabin. It is filed as cell-based. To be noted: test substance 10 μM at −40 mV; current increase standardized to retigabin (10 μM) effect. The procedure:
II. Voltage Clamp Measurements
In order to confirm electrophysiologically a KCNQ2/3 agonistic action of the substances, patch-clamp measurements [see Hamill O P, Marty A, Neher E, Sakmann B, Sigworth F J: “Improved patch-clamp techniques for high-resolution current recording from cells and cell-free membrane patches”, Pflugers Arch. 1981 August; 391(2):85-100] were carried out in the voltage clamp mode on a stably transfected hKCNQ2/3 CHO-K1 cell line. After formation of the gigaseal the cells were first of all clamped at a holding potential of −60 mV. Depolarising voltage jumps were then applied up to a potential of +20 mV (increment: 20 mV, duration: 1 second), in order to confirm the functional expression of KCNQ2/3 typical currents. The substances were tested at a potential of −40 mV. The current increase induced by retigabin (10 μM) was first of all recorded on each cell at −40 mV as positive control. After completely washing out the retigabin effect (duration: 80 sec) the test substance (10 μM) was applied. The current increase induced by the test substance was standardized to the retigabin effect and stated as relative efficacy (see below).
(Patch clamp records ionic current or voltage across a cell membrane.)

The target of experiment [2] is T2, KCNQ2/3 ion channel (KCNQ2/3-expressing CHO-K1 cells) (Homo sapiens, UniProt O43525+O43526).
T2 construct: expressed in transfected cells; host or cells: CHO-K1
In words: Fluorescence assay (FLIPR instrument, membrane potential dye) for substances acting agonistically on the KCNQ2/3 ion channel. To be noted: difference between maximum and minimum values, agonistic action detected from a value of −40 (and below). It is filed as cell-based. On the procedure: Pharmacological Test Methods I. Fluorescence Assay (FLIPR™ Instrument) for the Identification of Substances Acting Agonistically on the KCNQ2/3 Ion Channel
On the day before the experiment, KCNQ2/3-expressing CHO-K1 cells and CHO-K1 empty strain cells were seeded out onto coated poly-D-lysine black/clear plates (Falcon/BD Company; Order No.: 356640) in a concentration of 20000 cells/100 μl MEM alpha, 50 ml FCS, 5.5 ml PIS/G/solution (100×) and then incubated for 20-24 hours in an incubator (37° C., 5% CO2). On the day of the experiment the HBSS/hepes working solution and the FMP/HBSS/hepes mixture (Membrane Potential Assay Kit Red (FMP), bulk format Cat. No. R8123) were initially prepared according to the following protocol:
• 1000 ml 1× HBSS buffer (Hank's Balanced Salt Solution (1×) (Gibco; No. 14025)+10 ml hepes (1M stock solution, pH 7.4; hepes Na salt (Sigma Company; No. H7006-500 g; storage at 4° C. in a refrigerator) 2. 1× FMP/HBSS/hepes working solution: • 6 ml HBSS/hepes buffer are added to 5 ml of the FMP solution stored at −20° C. (preparation see below; thawing out at room temperature). The test substances (2 mM batch solution in 100% DMSO) contained in drug plates (Costar 96-well plates, catalogue No. 3795) were then diluted by adding HBSS/hepes buffer to a concentration of 30 μM (3× concentrated). The assay plates on which the cells grow were washed once with 200 μl HBSS/hepes (Cellwash Washer, Labsystems Company, catalogue No. 5161550) and the remaining volume was removed by tapping out the inverted plate twice. 100 μl of the FMP/HBSS/hepes working solution were then added in each case to the cell plates and incubated for 1 hour in the CO2 incubator at 37° C. and 5% CO2. The measurements are then carried out with a FLIPR III instrument from the Molecular Devices company (96-format, using the 540-590 nm band-pass filter in the #2 localization). In the experimental setup of the FLIPR software, filter #2 should be selected. The cell plates and the substance plates were fed alternately into the input stack. A signal test was carried out in each case with the cell plates before adding the substance. The test substances were then added via the pipetting unit of the FLIPR (added volume 50 μl, 3× concentrated, end concentration 10 μM) to the cavities of the cell plates in a total volume of 150 μl/well. The threshold data of the FLIPR program were as follows:
The pipette tips were washed after each pipetting procedure 3 times with 1% DMSO in water. The times of the measurement intervals after addition of the test substances are as follows:
Total measurement time: 6 min/plate
The test samples were evaluated by calculating the difference between the maximum and minimum values. EC50/IC50 values are calculated using the Graph Pad Prism software.
Preparation of the membrane potential loading buffer (membrane potential assay kit red (FMP), bulk format cat. No. R8123) according to the manufacturer's instructions:
10 ml of the 10× assay buffer (component B) were diluted with 90 ml of sterile water and then adjusted to pH 7.4 with 1.0N NaOH (1× assay buffer). One vessel with the FLIPR membrane potential assay component A was completely dissolved in 100 ml 1× assay buffer and thoroughly mixed for 10 minutes with a magnetic stirrer. 5 ml aliquots were then stored at −20° C. (storage shelf life ca. 2 weeks).
An agonistic action can be detected starting from a value of −40 (and below).

Regarding `CC(Nc1noc2ccccc12)c1ccc(C(F)(F)F)cc1` (stereo not shown) [Example 1, Benzo[d]isoxazol-3-yl-[1-(4-trifluoro-methylphenyl)-ethyl]-amine], the “Voltage clamp: relative efficacy with respect to retigabin [10 μM]” value (from here on “Voltage clamp: relative efficacy”) in experiment [1] is 0.42.

For the molecule `CC(Nc1noc2ccccc12)c1ccc(SC(F)(F)F)cc1` (stereo not shown) [Example 2, Benzo[d]isoxazol-3-yl-[1-(4-trifluoromethyl-sulfanylphenyl)-ethyl]-amine], the “Voltage clamp: relative efficacy” value in experiment [1] is 0.37.

In the case of `N#Cc1cccc(NC(=S)Nc2noc3cc(F)ccc23)c1` [Example 112, 1-(3-cyanophenyl)-3-(6-fluoro-benzo[d]isoxazol-3-yl)-thiourea], the “Voltage clamp: relative efficacy” value in experiment [1] is recorded as 0.3.

On to `Cc1ccc(NC(=S)Nc2noc3c(F)cccc23)cc1` [Example 124, 1-(7-fluorobenzo[d]isoxazol-3-yl)-3-p-tolyl-thiourea], for which the “FLIPR membrane potential fluorescence change (ΔF %, max minus min); negative values indicate KCNQ2/3 agonism” value in experiment [2] is −50%.

Consider `COc1cccc2onc(NC(=S)NC(C)c3ccccc3)c12` (stereo not shown) [Example 128, 1-(4-methoxybenzo[d]isoxazol-3-yl)-3-(1-phenylethyl)-thiourea], for which the “FLIPR membrane potential fluorescence change (ΔF %, max minus min); negative values indicate KCNQ2/3 agonism” value in experiment [2] is on record as −47%.

As for `COc1cccc2onc(NC(=S)NCc3ccc(Cl)cc3)c12` [Example 129, 1-(4-chlorobenzyl)-3-(4-methoxy-benzo[d)isoxazol-3-yl)-thiourea], the “FLIPR membrane potential fluorescence change (ΔF %, max minus min); negative values indicate KCNQ2/3 agonism” value in experiment [2] is −42%.

For `COc1ccccc1NC(=S)Nc1noc2cccc(OC)c12` [Example 130, 1-(4-methoxybenzo[d]isoxazol-3-yl)-3-(2-methoxyphenyl)-thiourea], the “Voltage clamp: relative efficacy” value in experiment [1] is 0.2.

On to `COc1ccc(Cl)cc1NC(=S)Nc1noc2cccc(OC)c12` [Example 132, 1-(5-chloro-2-methoxyphenyl)-3-(4-methoxybenzo[d]isoxazol-3-yl)-thiourea], for which the “FLIPR membrane potential fluorescence change (ΔF %, max minus min); negative values indicate KCNQ2/3 agonism” value in experiment [2] is listed as −45%.

Take `COc1ccc(NC(=S)Nc2noc3cccc(OC)c23)c(OC)c1` [Example 134, 1-(2,4-dimethoxyphenyl)-3-(4-methoxybenzo[d]isoxazol-3-yl)-thiourea]: the “FLIPR membrane potential fluorescence change (ΔF %, max minus min); negative values indicate KCNQ2/3 agonism” value in experiment [2] is reported as −42%.

In the case of `COc1cc(NC(=S)Nc2noc3cccc(OCC(F)(F)F)c23)cc(OC)c1OC` [Example 135, 1-[4-(2,2,2-trifluoroethoxy)-benzo[d]isoxazol-3-yl]-3-(3,4,5-trimethoxyphenyl)-thiourea], in experiment [2], the “FLIPR membrane potential fluorescence change (ΔF %, max minus min); negative values indicate KCNQ2/3 agonism” value is reported as −47.5%.

As to `FC(F)(F)c1ccc(CNc2noc3ccccc23)cc1` [Example 152, benzo[d]isoxazol-3-yl-(4-trifluoromethylbenzyl)-amine], the “Voltage clamp: relative efficacy” value in experiment [1] was determined as 0.22. For the same molecule, the “FLIPR membrane potential fluorescence change (ΔF %, max minus min); negative values indicate KCNQ2/3 agonism” value in experiment [2] was −49%.

Consider `FC(F)(F)Oc1ccc(CNc2noc3ccccc23)cc1` [Example 158, benzo[d]isoxazol-3-yl-(4-trifluoromethoxybenzyl)-amine], for which the “FLIPR membrane potential fluorescence change (ΔF %, max minus min); negative values indicate KCNQ2/3 agonism” value in experiment [2] is −53%.

Regarding `Fc1ccc2onc(NCc3ccc(OC(F)(F)F)cc3)c2c1` [Example 159, (5-fluorobenzo[d]isoxazol-3-yl)-(4-trifluoromethoxy-benzyl)-amine], in experiment [1], the “Voltage clamp: relative efficacy” value is recorded as 0.42. For the same molecule, the “FLIPR membrane potential fluorescence change (ΔF %, max minus min); negative values indicate KCNQ2/3 agonism” value in experiment [2] is −41%.

As for `FC(F)(F)Sc1ccc(CNc2noc3ccccc23)cc1` [Example 160, benzo[d]isoxazol-3-yl-(4-trifluoromethylsulfanyl-benzyl)-amine], the “Voltage clamp: relative efficacy” value in experiment [1] worked out at 0.45. In addition, in experiment [2], the “FLIPR membrane potential fluorescence change (ΔF %, max minus min); negative values indicate KCNQ2/3 agonism” value is listed as −58%.

For `CCCCc1ccc(CNc2noc3cc(Cl)ccc23)cc1` [Example 161, (4-butylbenzyl)-(6-chloro-benzo[d]isoxazol-3-yl)-amine], in experiment [1], the “Voltage clamp: relative efficacy” value stood at 0.61. The “FLIPR membrane potential fluorescence change (ΔF %, max minus min); negative values indicate KCNQ2/3 agonism” value in experiment [2] is recorded as −40%.

With `Fc1ccc2onc(NCc3ccc(SC(F)(F)F)cc3)c2c1` [Example 162, (5-fluorobenzo[d]isoxazol-3-yl)-(4-trifluoromethyl-sulfanylbenzyl)-amine], in experiment [1], the “Voltage clamp: relative efficacy” value stood at 0.79.

For the molecule `Fc1cc(C(F)(F)F)ccc1CNc1noc2ccccc12` [Example 163, benzo[d]isoxazol-3-yl-(2-fluoro-4-trifluoromethyl-benzyl)-amine], the “Voltage clamp: relative efficacy” value in experiment [1] is on record as 1.29. In addition, the “FLIPR membrane potential fluorescence change (ΔF %, max minus min); negative values indicate KCNQ2/3 agonism” value in experiment [2] is given as −56%.

With `Cc1cc(C)cc(CNc2noc3c(F)cccc23)c1` [Example 167, (3,5-dimethylbenzyl)-(7-fluorobenzo[d]isoxazol-3-yl)-amine], the “Voltage clamp: relative efficacy” value in experiment [1] is on record as 0.25. Also, in experiment [2], the “FLIPR membrane potential fluorescence change (ΔF %, max minus min); negative values indicate KCNQ2/3 agonism” value is on record as −61%.

With `COc1ccc(CNc2noc3cc(F)ccc23)cc1Br` [Example 168, (3-bromo-4-methoxy-benzyl)-(6-fluorobenzo[d]-isoxazol-3-yl)-amine], in experiment [1], the “Voltage clamp: relative efficacy” value worked out at 0.35.

Regarding `Cc1cc(C)cc(CNc2noc3cc(F)ccc23)c1` [Example 169, (3,5-dimethylbenzyl)-(6-fluorobenzo[d]isoxazol-3-yl)-amine], the “FLIPR membrane potential fluorescence change (ΔF %, max minus min); negative values indicate KCNQ2/3 agonism” value in experiment [2] is on record as −63.25%.

On to `Cc1cc(CNc2noc3cc(F)ccc23)cc(C)c1OCc1ccccc1` [Example 170, (4-benzyloxy-3,5-dimethyl-benzyl)-(6-fluorobenzo[d]isoxazol-3-yl)-amine], for which the “Voltage clamp: relative efficacy” value in experiment [1] stood at 0.72.

Consider `Fc1ccc2c(NCc3ccc(SC(F)(F)F)cc3)noc2c1` [Example 172, (6-fluorobenzo[d]isoxazol-3-yl)-(4-trifluoromethyl-sulfanyl-benzyl)-amine], for which the “FLIPR membrane potential fluorescence change (ΔF %, max minus min); negative values indicate KCNQ2/3 agonism” value in experiment [2] is given as −68%.

On to `FC(F)(F)Sc1ccc(CNc2noc3ccc(Br)cc23)cc1` [Example 176, (5-bromobenzo[d]isoxazol-3-yl)-(4-trifluoromethyl-sulfanyl-benzyl)-amine], for which, in experiment [1], the “Voltage clamp: relative efficacy” value came out at 0.62.

With `Fc1c(Cl)cccc1CNc1noc2cccc(Cl)c12` [Example 200, (4-chlorobenzo[d]isoxazol-3-yl)-(3-chloro-2-fluoro-benzyl)-amine], the “FLIPR membrane potential fluorescence change (ΔF %, max minus min); negative values indicate KCNQ2/3 agonism” value in experiment [2] is given as −74%.

For the molecule `Fc1cccc2c(NCc3cccc(OC(F)(F)F)c3)noc12` [Example 203, (7-fluorobenzo[d]isoxazol-3-yl)-(3-trifluoromethoxy-benzyl)-amine], the “FLIPR membrane potential fluorescence change (ΔF %, max minus min); negative values indicate KCNQ2/3 agonism” value in experiment [2] is listed as −49%.
